Counter-ions that a name gives are not always drawn.
Molecular target: T1, Human D1 Receptor (Homo sapiens, UniProt P21728)
T1 construct: expressed in transfected cells; host or cells: LTK cell line over-expressing the D1 receptor
Experiment: Human D1 Receptor Binding Assay ([3H]-SCH23390 competition binding)
Conditions: over-expressing LTK human cell lines; 0.5 nM [3H]-SCH23390; 30 min at 37° C.; footnote a = geometric mean of ≧5 determinations, footnote b = single determination; read-out: Human D1 Receptor Binding, Ki (nM); Geometric mean of 2-4 determinations (unless otherwise indicated)
Procedure: The affinity of the compounds described herein was determined by competition binding assays similar to those described in Ryman-Rasmussen et al., “Differential activation of adenylate cyclase and receptor internalization by novel dopamine D1 receptor agonists”, Molecular Pharmacology 68(4):1039-1048 (2005).
D1 binding assays were performed using over-expressing LTK human cell lines. […] These ligand and tissue concentrations were used in time course studies to determine linearity and equilibrium conditions for binding. Binding was at equilibrium with the specified amount of tissue in 30 minutes at 37° C. […] The pellet was resuspended in assay buffer [50 mM Tris (pH 7.4@RT) containing 4 mM MgSO4 and 0.5 mM EDTA]. […] Non-specific binding was determined by radioligand binding in the presence of a saturating concentration of (+)-Butaclamol (10 μM), a D1 antagonist. After a 30 minute incubation period at 37° C., assay samples were rapidly filtered through Unifilter-96 GF/B PEI-coated filter plates and rinsed with 50 mM Tris buffer (pH 7.4 at 4° C.). […] The IC50 value (concentration at which 50% inhibition of specific binding occurs) was calculated by linear regression of the concentration-response data in Microsoft Excel. Ki values were calculated according to the Cheng-Prusoff equation: […]

T1 sequence (P21728 whole entry): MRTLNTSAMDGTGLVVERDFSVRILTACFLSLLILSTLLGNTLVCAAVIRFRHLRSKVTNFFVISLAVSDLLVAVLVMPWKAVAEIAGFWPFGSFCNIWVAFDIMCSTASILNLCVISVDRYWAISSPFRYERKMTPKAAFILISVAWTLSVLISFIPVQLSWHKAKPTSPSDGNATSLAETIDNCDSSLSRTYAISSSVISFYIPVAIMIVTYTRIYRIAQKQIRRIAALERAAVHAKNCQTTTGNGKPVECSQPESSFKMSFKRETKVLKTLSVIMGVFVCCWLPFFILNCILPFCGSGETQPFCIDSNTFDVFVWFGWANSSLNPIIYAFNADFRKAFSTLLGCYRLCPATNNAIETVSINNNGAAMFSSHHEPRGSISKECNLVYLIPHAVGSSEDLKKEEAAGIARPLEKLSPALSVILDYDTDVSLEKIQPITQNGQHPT

| SMILES | Ki |
| --- | --- |
| Cc1cnnc(C)c1-c1ccc(Oc2nccc3ccsc23)cc1F [Example 47, 7-[4-(3,5-dimethylpyridazin-4-yl)-3-fluorophenoxy]thieno[2,3-c]pyridine] | 6.1 nM |
| COc1cc(Oc2nccc3ccsc23)ccc1-c1c(C)cnnc1C [Example 42, 7-[4-(3,5-dimethylpyridazin-4-yl)-3-methoxyphenoxy]thieno[2,3-c]pyridine] | 17.7 nM |
| Cc1cc(Oc2nccc3ccsc23)ccc1-n1c(C)nc2cnccc21 [Example 8, 2-methyl-1-[2-methyl-4-(thieno[2,3-c]pyridin-7-yloxy)phenyl]-1H-imidazo[4,5-c]pyridine] | 13.1 nM |
| Cc1cc(Oc2nccc3ccsc23)ccc1-c1c(C)cnnc1C [Example 14, 7-[4-(3,5-dimethylpyridazin-4-yl)-3-methylphenoxy]thieno[2,3-c]pyridine] | 3.3 nM |
| Cc1cc(Oc2nccc3ncsc23)ccc1-c1c(C)ncc(=O)n1C (single isomer, unassigned) [Example 30, (+)-1,5-dimethyl-6-[2-methyl-4-([1,3]thiazolo[5,4-c]pyridin-4-yloxy)phenyl]pyrazin-2(1H)-one] | 116 nM |
| Cc1ncnc(C)c1-c1ccc(Oc2ncnc3ccsc23)cc1F [Example 24, 4-[4-(4,6-dimethylpyrimidin-5-yl)-3-fluorophenoxy]thieno[3,2-d]pyrimidine, trifluoroacetate salt] | 531 nM |
| Cc1cc(Oc2nccc3ncsc23)ccc1-c1c(C)n[nH]c(=O)c1C [Example 26, 4,6-dimethyl-5-[2-methyl-4-([1,3]thiazolo[5,4-c]pyridin-4-yloxy)phenyl]pyridazin-3(2H)-one] | 12.2 nM |
| Cc1cc(Oc2nccc3ncsc23)ccc1-c1c(C)ncc(=O)n1C [Example 16, 1,5-dimethyl-6-[2-methyl-4-([1,3]thiazolo[5,4-c]pyridin-4-yloxy)phenyl]pyrazin-2(1H)-one] | 82.8 nM |
| Cc1cc(Oc2ncnc3ccsc23)ccc1-c1cn[nH]c(=O)c1C [Example 4, 4-methyl-5-[2-methyl-4-(thieno[3,2-d]pyrimidin-4-yloxy)phenyl]pyridazin-3(2H)-one] | 68.4 nM |
| Cc1ncnc(C)c1-c1cc(F)c(Oc2nccc3ncsc23)c(F)c1 [Example 32, 4[4-(4,6-dimethylpyrimidin-5-yl)-2,6-difluorophenoxy][1,3]thiazolo[5,4-c]pyridine] | 1060 nM |
| Cc1cc(Oc2nccc3cc[nH]c23)ccc1-c1c(C)ncc2nccn12 [Example 54, 6-methyl-5-[2-methyl-4-(1H-pyrrolo[2,3-c]pyridin-7-yloxy)phenyl]imidazo[1,2-a]pyrazine] | 68.9 nM |
| Cc1ncnc(C)c1-c1cc(F)c(Oc2ncnc3ccsc23)c(F)c1 [Example 33, 4-[4-(4,6-dimethylpyrimidin-5-yl)-2,6-difluorophenoxy]thieno[3,2-d]pyrimidine] | 864 nM |
| COc1cc(Oc2nccc3ccsc23)ccc1-c1nccnc1C [Example 10, 7-[3-methoxy-4-(3-methylpyrazin-2-yl)phenoxy]thieno[2,3-c]pyridine] | 44.9 nM |
| Cc1ncnc(C)c1-c1ccc(Oc2ncnc3ccsc23)c(F)c1C [Example 20, 4-[4-(4,6-dimethylpyrimidin-5-yl)-2-fluoro-3-methylphenoxy]thieno[3,2-d]pyrimidine] | 121 nM |
| Cc1cc(Oc2nccc3ccoc23)ccc1-c1c(C)ncc2nccn12 [Example 9, 5-[4-(furo[2,3-c]pyridin-7-yloxy)-2-methylphenyl]-6-methylimidazo[1,2-a]pyrazine] | 57.2 nM |
| Cc1cc(Oc2ncnc3ccsc23)ccc1-c1c(C)c(=O)[nH]c(=O)n1C (single isomer, unassigned) [Example 1, (+)-1,5-dimethyl-6-[2-methyl-4-(thieno[3,2-d]pyrimidin-4-yloxy)phenyl]pyrimidine-2,4(1H,3H)-dione] | 4.1 nM |
| Cc1cc(Oc2nccc3cc[nH]c23)ccc1-c1c(C)ncnc1C [Example 12, 7-[4-(4,6-dimethylpyrimidin-5-yl)-3-methylphenoxy]-1H-pyrrolo[2,3-c]pyridine] | 403 nM |
| Cc1ncnc(C)c1-c1cc(F)c(Oc2ncnc3ccsc23)cc1F [Example 21, 4-[4-(4,6-dimethylpyrimidin-5-yl)-2,5-difluorophenoxy]thieno[3,2-d]pyrimidine] | 62.4 nM |
| Cc1ncnc(C)c1-c1ccc(Oc2nccc3ccsc23)cc1C#N [Example 49, 2-(4,6-dimethylpyrimidin-5-yl)-5-(thieno[2,3-c]pyridin-7-yloxy)benzonitrile] | 16.3 nM |
| Cc1cc(Oc2nccc3ncsc23)ccc1-c1c(C)ncc(=O)n1C (single isomer, unassigned) [Example 29, (−)-1,5-dimethyl-6-[2-methyl-4-([1,3]thiazolo[5,4-c]pyridin-4-yloxy)phenyl]pyrazin-2(1H)-one] | 40.6 nM |
| Cc1ncnc(C)c1-c1ccc(Oc2nccc3ccsc23)c(F)c1 [Example 39, 7-[4-(4,6-dimethylpyrimidin-5-yl)-2-fluorophenoxy]thieno[2,3-c]pyridine] | 28.2 nM |

Continued, values first:

| Ki | SMILES |
| --- | --- |
| 175 nM | Cc1ncnc(C)c1-c1ccc(Oc2nccc3ncsc23)c(F)c1C [Example 66, 4-[4-(4,6-dimethylpyrimidin-5-yl)-2-fluoro-3-methylphenoxy][1,3]thiazolo[5,4-c]pyridine] |
| 126 nM | Cc1cc(Oc2nccc3cc[nH]c23)ccc1-c1c(C)n[nH]c(=O)c1C [Example 69, 4,6-dimethyl-5-[2-methyl-4-(1H-pyrrolo[2,3-c]pyridin-7-yloxy)phenyl]pyridazin-3(2H)-one] |
| 32.3 nM | Cc1cc(Oc2nccc3ncsc23)ccc1-c1c(C)cnnc1C (single isomer, unassigned) [Example 64, (+)-4-[4-(3,5-dimethylpyridazin-4-yl)-3-methylphenoxy][1,3]thiazolo[5,4-c]pyridine] |
| 151 nM | Cc1cc(Oc2nccc3ncsc23)ccc1-c1c(C)ncc2nccn12 (single isomer, unassigned; ent-1) [Example 61, 4-[3-methyl-4-(6-methylimidazo[1,2-a]pyrazin-5-yl)phenoxy][1,3]thiazolo[5,4-c]pyridine, ENT-1] |
| 75.1 nM | Cc1cc(Oc2nccc3ncsc23)ccc1-c1c(C)ncnc1C [Example 58, 4-[4-(4,6-dimethylpyrimidin-5-yl)-3-methylphenoxy][1,3]thiazolo[5,4-c]pyridine] |
| 223 nM | Cc1cc(Oc2nccc3ncsc23)ccc1-c1c(C)cnnc1C (single isomer, unassigned) [Example 65, (−)-4-[4-(3,5-dimethylpyridazin-4-yl)-3-methylphenoxy][1,3]thiazolo[5,4-c]pyridine] |
| 65.3 nM | Cc1cc(Oc2nccc3ncsc23)ccc1-c1c(C)cnnc1C [Example 60, 4-[4-(3,5-dimethylpyridazin-4-yl)-3-methylphenoxy][1,3]thiazolo[5,4-c]pyridine] |
| 17.7 nM | Cc1n[nH]c(=O)c(C)c1-c1ccc(Oc2ncnc3ccsc23)cc1 [Example 67, 4,6-dimethyl-5-[4-(thieno[3,2-d]pyrimidin-4-yloxy)phenyl]pyridazin-3(2H)-one] |
| 106 nM | Cc1nc2ccnc(Oc3ccc(-c4c(C)n[nH]c(=O)c4C)c(C)c3)c2s1 [Example 56, 4,6-dimethyl-5-{2-methyl-4-[(2-methyl[1,3]thiazolo[5,4-c]pyridin-4-yl)oxy]phenyl}pyridazin-3(2H)-one] |

Source: patent US9688698B2, “Heteroaromatic compounds and their use as dopamine D1 ligands” (PFIZER INC., priority 2014, dated 2017)
